Measured values reported in US20240173419A1, “CDK2 DEGRADERS AND USES THEREOF” (Kymera Therapeutics, Inc., priority 2022, published 2024).

Biological target: T1, CDK2 (Homo sapiens, UniProt P24941)
T1 construct: endogenous in cells; host or cells: MKN1 cells
Assay: CDK2 degradation in MKN1 cells (AlphaLISA)
Type: cell-based
Conditions: for CDK2 degradation 14 h: Average Dmax % / DC50: 14 h incubation; for DC50: read-out: CDK2 degradation 14 h: Mean external-Abs DC50
Summary of the method: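 DC50 from four-parameter logistic fit of AlphaLISA CDK2 signal, corrected for no-cell wells. Lysates came from MKN1 cells, 2e4 per well, exposed 14 h at 37° C to compound at 0.001 nM-10 μM (1:5 series, 11 doses) in 0.1% DMSO.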

SMILES	CDK2 degradation 14 h: Average Dmax %	DC50	Dmax (MKN-1, 14 h incubation)
Cc1cc(S(=O)(=O)NCCOCCOCCCc2ccc3c(c2)n(C)c(=O)n3C2CCC(=O)NC2=O)ccc1Nc1ncc2c(C)cc(=O)n(C3CCCC3)c2n1 (centres unmarked) [I-466]	D (D (<25%))	> 1 µM	–
Cc1cc(S(=O)(=O)NC2CC(N3CCN(CC4CCN(c5ccc(C6CCC(=O)NC6=O)c(Cl)c5)CC4)CC3)C2)ccc1Nc1ncc(C(F)(F)F)c(N2CCCC(C)(O)C2)n1 (centres unmarked) [I-714]	A (A (>75% o))	< 0.1 µM	–
CC1(O)CCCN(c2nc(Nc3ccc(S(=O)(=O)NC4CC5CCC(C4)N5CC4CCN(c5ccc(C6CCC(=O)NC6=O)c(F)c5)CC4)cc3F)ncc2C(F)(F)F)C1 (centres unmarked) [I-1057]	B (B (>50% -75%))	0.1 to 0.5 µM	–
Cc1cc(S(=O)(=O)NCCOCCOCCCc2cccc3c2n(C)c(=O)n3C2CCC(=O)NC2=O)ccc1Nc1ncc2cc(C(F)F)c(=O)n([C@@H]3CCC[C@]3(C)O)c2n1 (some centres unmarked) [I-487]	A (A (>75% o))	< 0.1 µM	–
COCc1cnc(Nc2ccc(S(=O)(=O)C3CC4(CCN(CC5CCN(c6ccc7c(c6F)n(C)c(=O)n7C6CCC(=O)NC6=O)CC5)CC4)C3)cc2C)nc1N1CCCC(C)(O)C1 (centres unmarked) [I-856]	D (D (<25%))	> 1 µM	–
CC1(O)CCCN(c2nc(Nc3ccc(S(=O)(=O)NC4CCN(CC5(C)CCN(c6ccc(C7CCC(=O)NC7=O)cc6F)CC5)CC4F)cc3F)ncc2C(F)(F)F)C1 (centres unmarked) [I-1068]	A (A (>75% o))	0.1 to 0.5 µM	–
Cc1cc(S(=O)(=O)NC2CCC(CN3CCN(c4ccc(C5CCC(=O)NC5=O)c(F)c4)CC3)CC2)ncc1Nc1ncc(C(F)(F)F)c(N2CCCC(C)(O)C2)n1 (centres unmarked) [I-1066]	A (A (>75% o))	< 0.1 µM	–
Cc1cc(S(=O)(=O)NCCOC2CCC(CN3CCN(c4ccc(NC5CCC(=O)NC5=O)cc4C)CC3)CC2)ccc1Nc1ncc2cc(Cl)c(=O)n(C3CCCC3)c2n1 (centres unmarked) [I-308]	A (A (>75% o))	< 0.1 µM	–
Cc1cc(S(=O)(=O)NC2CC(N3CCN(CC4CCN(c5ccc(N6CCC(=O)NC6=O)c(Cl)c5)CC4)CC3)C2)ccc1Nc1ncc(C(F)(F)F)c(N2CCCC(C)(O)C2)n1 (centres unmarked) [I-721]	A (A (>75% o))	< 0.1 µM	–
Cc1cc(S(=O)(=O)NC2CCC(CN3CCN(c4cccc(NC5CCC(=O)NC5=O)c4F)CC3)CC2)ccc1Nc1ncc(C(F)(F)F)c(N2CCCC(C)(O)C2)n1 (centres unmarked) [I-1143]	A (A (>75% o))	< 0.1 µM	–
CC1(O)CCCN(c2nc(Nc3ccc(S(=O)(=O)NC4CCC5(CC4)CN(CC4CCN(c6ccc(C7CCC(=O)NC7=O)c(F)c6)CC4)C5)cc3F)ncc2C(F)(F)F)C1 (centres unmarked) [I-1064]	A (A (>75% o))	< 0.1 µM	–
Cc1cc(S(=O)(=O)C(C)(C)CCO[C@H]2CC[C@H](CN3CCC(c4ccc5c(c4)n(C)c(=O)n5C4CCC(=O)NC4=O)CC3)CC2)ccc1Nc1ncc2cc(Cl)c(=O)n(C3CCCC3)c2n1 (some centres unmarked) [I-65]	A (A (>75% o))	< 0.1 µM	–
Cc1cc(S(=O)(=O)N2CCC(CN(C)C3CCN(c4cccc5c4n(C)c(=O)n5C4CCC(=O)NC4=O)CC3)CC2)ccc1Nc1ncc2cc(C(F)(F)F)c(=O)n(C3CCCC3)c2n1 (centres unmarked) [I-341]	A (A (>75% o))	< 0.1 µM	–
Cc1cc(S(=O)(=O)NC2CCC(CN3CCN(c4ccc([C@H]5CCC(=O)NC5=O)c(Cl)c4)CC3)CC2)ccc1Nc1ncc(C(F)(F)F)c(N2CCC[C@](C)(O)C2)n1 (single isomer, unassigned) [I-817]	–	0.1 to 0.5 µM	> 75%
Cc1cc(S(=O)(=O)NC2CCC(CN3CCN(c4ccc(C(=O)NC5CCC(=O)NC5=O)cc4C)CC3)CC2)ccc1Nc1ncc(C(F)(F)F)c(N2CCCC(C)(O)C2)n1 (centres unmarked) [I-1126]	A (A (>75% o))	0.1 to 0.5 µM	–
Cc1cc(S(=O)(=O)C2CC3(CCN(CCN4CCN(c5ccc6c(c5F)n(C)c(=O)n6C5CCC(=O)NC5=O)CC4)CC3)C2)ccc1Nc1ncc2cc(Cl)c(=O)n(C3CCCC3)c2n1 (centres unmarked) [I-826]	B (B (>50% -75%))	< 0.1 µM	–
Cc1cc(S(=O)(=O)NCCO[C@H]2CC[C@H](CN3CCC(c4ccc5c(c4)n(C)c(=O)n5C4CCC(=O)NC4=O)CC3)CC2)ccc1Nc1ncc2cc(C(F)F)c(=O)n(C3CCCC3)c2n1 (some centres unmarked) [I-441]	A (A (>75% o))	< 0.1 µM	–
Cc1cc(S(=O)(=O)NC2CC(N3CCN(CC4CN(c5cccc6c5n(C)c(=O)n6C5CCC(=O)NC5=O)C4)CC3)C2)ccc1Nc1ncc(C(F)(F)F)c(C2CCC(C)(O)CC2)n1 (centres unmarked) [I-847]	A (A (>75% o))	< 0.1 µM	–
Cc1cc(S(=O)(=O)CCCO[C@H]2CC[C@H](CN3CCC(c4ccc5c(c4)n(C)c(=O)n5C4CCC(=O)NC4=O)CC3)CC2)ccc1Nc1ncc(C(F)(F)F)c(-c2cnn(C)c2)n1 (some centres unmarked) [I-68]	–	< 0.1 µM	–
Cc1cc(S(=O)(=O)NCCOC2CCC(CN3CCC(c4ccc5c(c4F)n(C)c(=O)n5C4CCC(=O)NC4=O)CC3)CC2)ccc1Nc1ncc(C(F)(F)F)c(C2CCC(C)(O)CC2)n1 (centres unmarked) [I-515]	A (A (>75% o))	< 0.1 µM	–
Cc1cc(S(=O)(=O)NCCCCCC2CCN(c3ccc(N4CCC(=O)NC4=O)cc3)CC2)ccc1Nc1ncc2cc(Cl)c(=O)n(C3CCCC3)c2n1 [I-410]	C (C (>25% -50%))	> 1 µM	–
Cc1cc(S(=O)(=O)NCCC2CCN(c3ccc(N4CCC(=O)NC4=O)cc3)CC2)ccc1Nc1ncc2cc(Cl)c(=O)n(C3CCCC3)c2n1 [I-413]	B (B (>50% -75%))	> 1 µM	–
Cc1cc(S(=O)(=O)NCCOCCOCCOCCOCCCc2ccc3c(c2)n(C)c(=O)n3C2CCC(=O)NC2=O)ccc1Nc1ncc2cc(C(F)F)c(=O)n(C3CCCC3(C)O)c2n1 (centres unmarked) [I-486]	A (A (>75% o))	< 0.1 µM	–
Cc1cc(S(=O)(=O)C2CC3(CCN(CC4CCN(c5ccc6c(c5F)n(C)c(=O)n6C5CCC(=O)NC5=O)CC4)CC3)C2)ccc1Nc1ncc2cc(Cl)c(=O)n(C3CCCC3)c2n1 (centres unmarked) [I-38]	A (A (>75% o))	< 0.1 µM	–
Cc1cc(S(=N)(=O)C2CC3(CCN(CC4CCN(c5cccc6c5n(C)c(=O)n6C5CCC(=O)NC5=O)CC4)CC3)C2)ccc1Nc1ncc2cc(Cl)c(=O)n(C3CCCC3)c2n1 (centres unmarked) [I-93]	A (A (>75% o))	< 0.1 µM	–
Cc1cc(S(=O)(=O)NC(C)COC2CCC(CN3CC(c4ccc5c(c4F)n(C)c(=O)n5C4CCC(=O)NC4=O)C3)CC2)ccc1Nc1ncc(C(F)(F)F)c(N2CCCC(C)(O)C2)n1 (centres unmarked) [I-848]	A (A (>75% o))	< 0.1 µM	–
Cc1cc(S(=O)(=O)NC2CCC(CN3CCN(c4ccc(C5CCC(=O)NC5=O)c(F)c4)CC3)CC2)ccc1Nc1ncc(C(F)(F)F)c(N2CCCC(C)(O)C2)n1 (centres unmarked) [I-1072]	–	< 0.1 µM	–
Cc1cc(S(=O)(=O)N(C)CCO[C@H]2CC[C@H](CN3CCC(c4ccc5c(c4)n(C)c(=O)n5C4CCC(=O)NC4=O)CC3)CC2)ccc1Nc1ncc2cc(Cl)c(=O)n(C3CCCC3)c2n1 (some centres unmarked) [I-435]	A (A (>75% o))	< 0.1 µM	–
Cc1cc(S(=O)(=O)C2CC3(CCN(CC4CCN(c5ccc6c(c5F)n(C)c(=O)n6C5CCC(=O)NC5=O)CC4)CC3)C2)ccc1Nc1ncc2c(n1)N(C1CCCC1)C(=O)C21CC1 (centres unmarked) [I-529]	A (A (>75% o))	< 0.1 µM	–
